Measured values as given in PubChem BioAssay AID2060888 (Molecular Pharmacology Branch, DTP, NCI, 2025).
One block for each compound: values may come before it.

Tested on: 695427-040-R-J1-PDC complex spheroid viability
Test: Anticancer human tumor 695427-040-R-J1-PDC patient-derived colon adenocarcinoma cell line growth inhibition [RAS]
Conditions: for IC50: curve of first compound; for viability, T/C: stronger effect = lower value
How it was run: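 Multi-cell-type spheroids: tumor cells plus HUVEC endothelial cells and mesenchymal stem cells. RAS-pathway inhibitors were combined with targeted agents, each dosed in half-log steps down from clinical Cmax, or from 10 microM when Cmax was unknown.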

[1] = second compound 0.000949 µM, first compound 0.0316 µM
[2] = second compound 0.000949 µM, first compound 0.1 µM
[3] = second compound 0.003 µM, first compound 0.0316 µM
[4] = second compound 0.003 µM, first compound 0.1 µM
[5] = second compound 0.00949 µM, first compound 0.0316 µM
[6] = second compound 0.00949 µM, first compound 0.1 µM
[7] = second compound 0.03 µM, first compound 0.0316 µM
[8] = second compound 0.03 µM, first compound 0.1 µM
[9] = second compound 0.0949 µM, first compound 0.0316 µM
[10] = second compound 0.0949 µM, first compound 0.1 µM
[11] = second compound 0.3 µM, first compound 0.0316 µM
[12] = second compound 0.3 µM, first compound 0.1 µM
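Note: viability read after seven days of drug exposure.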
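Throughout, for viability, T/C: 100% = DMSO vehicle control viability.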

- IC50 (second compound 0.0316 µM): 1960 nM
- IC50 (second compound 0.1 µM): 1890 nM
- IC50 (second compound 0.316 µM): 1800 nM
- IC50 (second compound 1 µM): 1600 nM
- IC50 (second compound 3.16 µM): 1240 nM
- IC50 (second compound 10 µM): < 31.6 nM
SMILES: CCC(CC)c1cc(NC2CCC(N)C2)n2nccc2n1 (stereo unspecified) + C#Cc1c(F)ccc2cc(O)cc(-c3ncc4c(N5CC6CCC(C5)N6)nc(OCC56CCCN5CC(F)C6)nc4c3F)c12
- viability, T/C (second compound 0.0316 µM, first compound 0.0316 µM): 102%
- viability, T/C (second compound 0.0316 µM, first compound 0.1 µM): 109%
- viability, T/C (second compound 0.0316 µM, first compound 0.316 µM): 110%
- viability, T/C (second compound 0.0316 µM, first compound 1 µM): 110%
- viability, T/C (second compound 0.0316 µM, first compound 3.16 µM): 5.99%
- viability, T/C (second compound 0.0316 µM, first compound 10 µM): 12.4%
- viability, T/C (second compound 0.1 µM, first compound 0.0316 µM): 95.5%
- viability, T/C (second compound 0.1 µM, first compound 0.1 µM): 90.5%
- viability, T/C (second compound 0.1 µM, first compound 0.316 µM): 108%
- viability, T/C (second compound 0.1 µM, first compound 1 µM): 101%
- viability, T/C (second compound 0.1 µM, first compound 3.16 µM): 6.65%
- viability, T/C (second compound 0.1 µM, first compound 10 µM): 13.9%
- viability, T/C (second compound 0.316 µM, first compound 0.0316 µM): 99.3%
- viability, T/C (second compound 0.316 µM, first compound 0.1 µM): 90.8%
- viability, T/C (second compound 0.316 µM, first compound 0.316 µM): 97.2%
- viability, T/C (second compound 0.316 µM, first compound 1 µM): 91.3%
- viability, T/C (second compound 0.316 µM, first compound 3.16 µM): 7.6%
- viability, T/C (second compound 0.316 µM, first compound 10 µM): 13.9%
- viability, T/C (second compound 1 µM, first compound 0.0316 µM): 76.9%
- viability, T/C (second compound 1 µM, first compound 0.1 µM): 70.5%
- viability, T/C (second compound 1 µM, first compound 0.316 µM): 76.8%
- viability, T/C (second compound 1 µM, first compound 1 µM): 82.1%
- viability, T/C (second compound 1 µM, first compound 3.16 µM): 6.13%
- viability, T/C (second compound 1 µM, first compound 10 µM): 17%
- viability, T/C (second compound 3.16 µM, first compound 0.0316 µM): 66.9%
- viability, T/C (second compound 3.16 µM, first compound 0.1 µM): 59.6%
- viability, T/C (second compound 3.16 µM, first compound 0.316 µM): 64.9%
- viability, T/C (second compound 3.16 µM, first compound 1 µM): 59.2%
- viability, T/C (second compound 3.16 µM, first compound 3.16 µM): 4.92%
- viability, T/C (second compound 3.16 µM, first compound 10 µM): 15.3%
- viability, T/C (second compound 10 µM, first compound 0.0316 µM): 40.6%
- viability, T/C (second compound 10 µM, first compound 0.1 µM): 43.7%
- viability, T/C (second compound 10 µM, first compound 0.316 µM): 43.6%
- viability, T/C (second compound 10 µM, first compound 1 µM): 38.2%
- viability, T/C (second compound 10 µM, first compound 3.16 µM): 1.94%
- viability, T/C (second compound 10 µM, first compound 10 µM): 7.42%

- IC50 (second compound 0.000949 µM): 3420 nM
- IC50 (second compound 0.003 µM): 1230 nM
- IC50 (second compound 0.00949 µM): 613 nM
- IC50 (second compound 0.03 µM): 117 nM
- IC50 (second compound 0.0949 µM): < 31.6 nM
- IC50 (second compound 0.3 µM): < 31.6 nM
SMILES: Cc1nc(N2CCC3(CC2)COC(C)C3N)c(CO)nc1Sc1ccnc(N)c1Cl (stereo unspecified) + CCn1c(-c2cc(N3CCN(C)CC3)cnc2C(C)OC)c2c3cc(ccc31)-c1csc(n1)CC(NC(=O)C1CC1C)C(=O)N1CCCC(N1)C(=O)OCC(C)(C)C2
- viability, T/C [1]: 98.8%
- viability, T/C [2]: 93.1%
- viability, T/C (second compound 0.000949 µM, first compound 0.316 µM): 84.9%
- viability, T/C (second compound 0.000949 µM, first compound 1 µM): 79.5%
- viability, T/C (second compound 0.000949 µM, first compound 3.16 µM): 49.7%
- viability, T/C (second compound 0.000949 µM, first compound 10 µM): 26.9%
- viability, T/C [3]: 86.3%
- viability, T/C [4]: 76.7%
- viability, T/C (second compound 0.003 µM, first compound 0.316 µM): 52.7%
- viability, T/C (second compound 0.003 µM, first compound 1 µM): 53.2%
- viability, T/C (second compound 0.003 µM, first compound 3.16 µM): 49.9%
- viability, T/C (second compound 0.003 µM, first compound 10 µM): 32.6%
- viability, T/C [5]: 71%
- viability, T/C [6]: 69.8%
- viability, T/C (second compound 0.00949 µM, first compound 0.316 µM): 49.6%
- viability, T/C (second compound 0.00949 µM, first compound 1 µM): 50.9%
- viability, T/C (second compound 0.00949 µM, first compound 3.16 µM): 33.9%
- viability, T/C (second compound 0.00949 µM, first compound 10 µM): 30.6%
- viability, T/C [7]: 63.9%
- viability, T/C [8]: 42.9%
- viability, T/C (second compound 0.03 µM, first compound 0.316 µM): 48.2%
- viability, T/C (second compound 0.03 µM, first compound 1 µM): 32.4%
- viability, T/C (second compound 0.03 µM, first compound 3.16 µM): 29.8%
- viability, T/C (second compound 0.03 µM, first compound 10 µM): 17.7%
- viability, T/C [9]: 46.5%
- viability, T/C [10]: 40.5%
- viability, T/C (second compound 0.0949 µM, first compound 0.316 µM): 25.2%
- viability, T/C (second compound 0.0949 µM, first compound 1 µM): 29.1%
- viability, T/C (second compound 0.0949 µM, first compound 3.16 µM): 23%
- viability, T/C (second compound 0.0949 µM, first compound 10 µM): 18.9%
- viability, T/C [11]: 27.5%
- viability, T/C [12]: 32.3%
- viability, T/C (second compound 0.3 µM, first compound 0.316 µM): 28.7%
- viability, T/C (second compound 0.3 µM, first compound 1 µM): 27.7%
- viability, T/C (second compound 0.3 µM, first compound 3.16 µM): 24.4%
- viability, T/C (second compound 0.3 µM, first compound 10 µM): 16%

- IC50 (second compound 0.000949 µM): > 100 nM
- IC50 (second compound 0.003 µM): > 100 nM
- IC50 (second compound 0.00949 µM): > 100 nM
- IC50 (second compound 0.03 µM): > 100 nM
- IC50 (second compound 0.0949 µM): 95.3 nM
- IC50 (second compound 0.3 µM): 89.7 nM
SMILES: CC(C)n1nc(-c2ccc3oc(N)nc3c2)c2c(N)ncnc21 + CCn1c(-c2cccnc2C(C)OC)c2c3cc(ccc31)N1CCOC(CC(NC(=O)C(C(C)C)N(C)C(=O)C3(F)CCN(C(=O)C#CC(C)(C)N(C)C)CC3)C(=O)N3CCCC(N3)C(=O)OCC(C)(C)C2)C1
- viability, T/C (second compound 0.000949 µM, first compound 0.000316 µM): 107%
- viability, T/C (second compound 0.000949 µM, first compound 0.001 µM): 120%
- viability, T/C (second compound 0.000949 µM, first compound 0.00316 µM): 78.7%
- viability, T/C (second compound 0.000949 µM, first compound 0.01 µM): 90.6%
- viability, T/C [1]: 74.3%
- viability, T/C [2]: 56.2%
- viability, T/C (second compound 0.003 µM, first compound 0.000316 µM): 107%
- viability, T/C (second compound 0.003 µM, first compound 0.001 µM): 84.3%
- viability, T/C (second compound 0.003 µM, first compound 0.00316 µM): 98.6%
- viability, T/C (second compound 0.003 µM, first compound 0.01 µM): 83.5%
- viability, T/C [3]: 62.1%
- viability, T/C [4]: 57.3%
- viability, T/C (second compound 0.00949 µM, first compound 0.000316 µM): 110%
- viability, T/C (second compound 0.00949 µM, first compound 0.001 µM): 89.7%
- viability, T/C (second compound 0.00949 µM, first compound 0.00316 µM): 85.5%
- viability, T/C (second compound 0.00949 µM, first compound 0.01 µM): 74.2%
- viability, T/C [5]: 73.5%
- viability, T/C [6]: 56.5%
- viability, T/C (second compound 0.03 µM, first compound 0.000316 µM): 108%
- viability, T/C (second compound 0.03 µM, first compound 0.001 µM): 80.2%
- viability, T/C (second compound 0.03 µM, first compound 0.00316 µM): 66%
- viability, T/C (second compound 0.03 µM, first compound 0.01 µM): 78.3%
- viability, T/C [7]: 77.7%
- viability, T/C [8]: 62.5%
- viability, T/C (second compound 0.0949 µM, first compound 0.000316 µM): 86.1%
- viability, T/C (second compound 0.0949 µM, first compound 0.001 µM): 79.2%
- viability, T/C (second compound 0.0949 µM, first compound 0.00316 µM): 66.8%
- viability, T/C (second compound 0.0949 µM, first compound 0.01 µM): 76.9%
- viability, T/C [9]: 73.4%
- viability, T/C [10]: 48.9%
- viability, T/C (second compound 0.3 µM, first compound 0.000316 µM): 83.2%
- viability, T/C (second compound 0.3 µM, first compound 0.001 µM): 104%
- viability, T/C (second compound 0.3 µM, first compound 0.00316 µM): 81%
- viability, T/C (second compound 0.3 µM, first compound 0.01 µM): 74.8%
- viability, T/C [11]: 64.5%
- viability, T/C [12]: 48%
